≈ marks a conversion by molar mass, not a printed value. Starred links: 1 amine or outer side, 2 acyl side, 3 side chain; linkers in the order of their positions; H or OH if unused. Positions of bridges follow the written chain, without caps; N, C: chain ends. Residues, ends and D or L forms follow the SMILES beside them. 2,2'Bipyridine(5,5'-diCH2) = c1cc(-c2ccc(C[*:2])cn2)ncc1C[*:1]; Naphthalene(2,6-diCH2) = c1cc2cc(C[*:2])ccc2cc1C[*:1]
Experiments:
[1] = 90 minute cytotoxicity assay (LDH release), renal toxicity; assay type: cell-based; conditions: 90 minutes of incubation, LDH release; read-out: Inhibitory Concentration at 50% Cytotoxicity (IC50) Human Renal Proximal Tubule Epithelial Cells (RPTEC)
Procedure, shortened: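 RPTEC plated overnight, given fresh medium, then exposed to serial peptide dilutions or vehicle for 90 min at 37° C. Medium LDH measured by 10 min reagent incubation and absorbance at 490 nm.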

[2] = system: Staphylococcus aureus (S. aureus); assay type: cell-based; conditions: microbroth dilution, 20-24 hours at 37° C.
Description: (§1) Antimicrobial Activity Assay: The following microbroth dilution protocol was adapted from CLSI to determine the minimum inhibitory concentration (MIC) of StAMPs. Briefly, Mueller-Hinton broth (MHB) or cation-adjusted Mueller-Hinton broth (MHB II) was prepared and autoclaved. Then, a colony of bacterial cells was picked and grown overnight in broth at 37° C. and then diluted and allowed to grow again for 3-4 hours. Serial dilutions of peptide stocks in water (10 μl) were prepared using clear round-bottom polypropylene 96-well plates. Then 90 μl of bacteria in broth was added to give a final inoculum of 5×10^5 CFU/ml. The plates were then covered with porous tape to reduce evaporation and incubated for 20-24 hours at 37° C. The MIC was the minimum peptide concentration at which no visible bacterial growth was observed.

[3] = system: Klebsiella pneumoniae (K. pneumoniae); assay type: cell-based; conditions: microbroth dilution, 20-24 hours at 37° C.
Description: as §1

[4] = system: Acinetobacter baumannii (A. baumannii); assay type: cell-based; conditions: microbroth dilution, 20-24 hours at 37° C.
Description: as §1

[5] = system: Pseudomonas aeruginosa (P. aeruginosa); assay type: cell-based; conditions: microbroth dilution, 20-24 hours at 37° C.
Description: as §1

[6] = system: Escherichia coli (E. coli); assay type: cell-based; conditions: microbroth dilution, 20-24 hours at 37° C.
Description: as §1

[7] = 48 hours cytotoxicity assay (CellTiter-Glo), liver toxicity; assay type: cell-based, human; conditions: 48 hours of incubation, CellTiter-Glo; read-out: Inhibitory Concentration at 50% Cytotoxicity (IC50) Human Liver Cells (HepG2)
Procedure, shortened: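 HepG2 cells in EMEM with 10% FBS, allowed to attach 4 h, then exposed to serially diluted StAMPs or vehicle for 48 h at 37 °C. Viability read by CellTiter-Glo luminescence.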

SMILES | IC50 [1] | Minimum Inhibitory Concentration (MIC) S. aureus [2] | Minimum Inhibitory Concentration (MIC) K. pneumoniae [3] | Minimum Inhibitory Concentration (MIC) A. baumannii [4] | Minimum Inhibitory Concentration (MIC) P. aeruginosa [5] | Minimum Inhibitory Concentration (MIC) E. coli [6] | IC50 [7]
CC[C@H](C)[C@H](NC(=O)CN)C(=O)N[C@@H](Cc1ccccc1)C(=O)N[C@@H](CO)C(=O)N[C@@H](CCCCN)C(=O)N[C@@H](CC(C)C)C(=O)N[C@@H](C)C(=O)NCC(=O)N[C@@H](CCCCN)C(=O)N[C@H]1CSCc2ccc3cc(ccc3c2)CSC[C@@H](C(=O)NCC(=O)N[C@@H](CC(C)C)C(=O)N[C@@H](CCCCN)C(=O)NCC(N)=O)NC(=O)[C@H]([C@@H](C)CC)NC(=O)[C@H](CC(C)C)NC(=O)[C@H](CC(C)C)NC(=O)[C@H](CC(N)=O)NC(=O)[C@H](CCCCN)NC(=O)[C@H]([C@@H](C)CC)NC1=O [compound 73] (H-GIFSKLAGKCIKNLLICGLKG-NH2; linker 10-17 via Naphthalene(2,6-diCH2); N-terminus assumed) | 9 µg/mL (≈ 3.87 µM) | 4 µg/mL | 8 µg/mL | 4 µg/mL | 64 µg/mL | 8 µg/mL | –
CC[C@H](C)[C@H](NC(=O)CN)C(=O)N[C@@H](Cc1ccccc1)C(=O)N[C@@H](CO)C(=O)N[C@@H](CCCCN)C(=O)N[C@@H](CC(C)C)C(=O)N[C@@H](C)C(=O)NCC(=O)N[C@@H](CCCCN)C(=O)N[C@H]1CSCc2ccc(nc2)-c2ccc(cn2)CSC[C@@H](C(=O)NCC(=O)N[C@@H](CC(C)C)C(=O)N[C@@H](CCCCN)C(=O)NCC(N)=O)NC(=O)[C@H]([C@@H](C)CC)NC(=O)[C@H](CC(C)C)NC(=O)[C@H](CC(C)C)NC(=O)[C@H](CC(N)=O)NC(=O)[C@H](CCCCN)NC(=O)[C@H]([C@@H](C)CC)NC1=O [compound 72] (H-GIFSKLAGKCIKNLLICGLKG-NH2; linker 10-17 via 2,2'Bipyridine(5,5'-diCH2); N-terminus assumed) | 19 µg/mL (≈ 8.06 µM) | 4 µg/mL | 8 µg/mL | 4 µg/mL | 32 µg/mL | 4 µg/mL | –
CC[C@H](C)[C@H](NC(=O)CN)C(=O)N[C@@H](Cc1ccccc1)C(=O)N[C@@H](CO)C(=O)N[C@@H](CCCCN)C(=O)N[C@@H](CC(C)C)C(=O)N[C@@H](C)C(=O)NCC(=O)N[C@@H](CCCCN)C(=O)N[C@@H](CCCCN)C(=O)N[C@H](C(=O)N[C@@H](CCCCN)C(=O)N[C@@H](CC(N)=O)C(=O)N[C@H]1CSCc2ccc(nc2)-c2ccc(cn2)CSC[C@@H](C(N)=O)NC(=O)[C@H](CCCCN)NC(=O)[C@H](CC(C)C)NC(=O)CNC(=O)[C@H](CO)NC(=O)[C@H]([C@@H](C)CC)NC(=O)[C@H](CC(C)C)NC1=O)[C@@H](C)CC [compound 84] (H-GIFSKLAGKKIKNCLISGLKC-NH2; linker 14-21 via 2,2'Bipyridine(5,5'-diCH2); N-terminus assumed) | – | >64 µg/mL | 16 µg/mL | 8 µg/mL | 32 µg/mL | 4 µg/mL | 105 µg/mL (≈ 43.7 µM)
CC[C@H](C)[C@H](NC(=O)CN)C(=O)N[C@@H](Cc1ccccc1)C(=O)N[C@@H](CO)C(=O)N[C@@H](CCCCN)C(=O)N[C@@H](CC(C)C)C(=O)N[C@@H](C)C(=O)NCC(=O)N[C@@H](CCCCN)C(=O)N[C@@H](CCCCN)C(=O)N[C@H]1CSCc2ccc3cc(ccc3c2)CSC[C@@H](C(=O)N[C@@H](CC(C)C)C(=O)N[C@@H](CCCCN)C(=O)NCC(N)=O)NC(=O)[C@H](CO)NC(=O)[C@H]([C@@H](C)CC)NC(=O)[C@H](CC(C)C)NC(=O)[C@H](CC(C)C)NC(=O)[C@H](CC(N)=O)NC(=O)[C@H](CCCCN)NC1=O [compound 75] (H-GIFSKLAGKKCKNLLISCLKG-NH2; linker 11-18 via Naphthalene(2,6-diCH2); N-terminus assumed) | – | 64 µg/mL | 16 µg/mL | 4 µg/mL | 16 µg/mL | 4 µg/mL | 98 µg/mL (≈ 41.3 µM)
CC[C@H](C)[C@H](NC(=O)CN)C(=O)N[C@@H](Cc1ccccc1)C(=O)N[C@@H](CO)C(=O)N[C@@H](CCCCN)C(=O)N[C@@H](CC(C)C)C(=O)N[C@@H](C)C(=O)NCC(=O)N[C@@H](CCCCN)C(=O)N[C@@H](CCCCN)C(=O)N[C@H]1CSCc2ccc(nc2)-c2ccc(cn2)CSC[C@@H](C(=O)N[C@@H](CC(C)C)C(=O)N[C@@H](CCCCN)C(=O)NCC(N)=O)NC(=O)[C@H](CO)NC(=O)[C@H]([C@@H](C)CC)NC(=O)[C@H](CC(C)C)NC(=O)[C@H](CC(C)C)NC(=O)[C@H](CC(N)=O)NC(=O)[C@H](CCCCN)NC1=O [compound 77] (H-GIFSKLAGKKCKNLLISCLKG-NH2; linker 11-18 via 2,2'Bipyridine(5,5'-diCH2); N-terminus assumed) | – | >64 µg/mL | 32 µg/mL | 4 µg/mL | 32 µg/mL | 4 µg/mL | 159 µg/mL (≈ 66.2 µM)
CC[C@H](C)[C@H](NC(=O)CN)C(=O)N[C@@H](Cc1ccccc1)C(=O)N[C@@H](CO)C(=O)N[C@@H](CCCCN)C(=O)N[C@@H](CC(C)C)C(=O)N[C@@H](C)C(=O)NCC(=O)N[C@@H](CCCCN)C(=O)N[C@@H](CCCCN)C(=O)N[C@H](C(=O)N[C@@H](CCCCN)C(=O)N[C@H]1CSCc2ccc3cc(ccc3c2)CSC[C@@H](C(=O)NCC(N)=O)NC(=O)[C@H](CC(C)C)NC(=O)CNC(=O)[C@H](CO)NC(=O)[C@H]([C@@H](C)CC)NC(=O)[C@H](CC(C)C)NC(=O)[C@H](CC(C)C)NC1=O)[C@@H](C)CC [compound 82] (H-GIFSKLAGKKIKCLLISGLCG-NH2; linker 13-20 via Naphthalene(2,6-diCH2); N-terminus assumed) | – | >64 µg/mL | 8 µg/mL | 4 µg/mL | 32 µg/mL | 4 µg/mL | 23 µg/mL (≈ 10 µM)
CC[C@H](C)[C@H](NC(=O)CN)C(=O)N[C@@H](Cc1ccccc1)C(=O)N[C@@H](CO)C(=O)N[C@@H](CCCCN)C(=O)N[C@@H](CC(C)C)C(=O)N[C@@H](C)C(=O)N[C@H]1CSCc2ccc(nc2)-c2ccc(cn2)CSC[C@@H](C(=O)N[C@H](C(=O)N[C@@H](CO)C(=O)NCC(=O)N[C@@H](CC(C)C)C(=O)N[C@@H](CCCCN)C(=O)NCC(N)=O)[C@@H](C)CC)NC(=O)[C@H](CC(C)C)NC(=O)[C@H](CC(N)=O)NC(=O)[C@H](CCCCN)NC(=O)[C@H]([C@@H](C)CC)NC(=O)[C@H](CCCCN)NC(=O)[C@H](CCCCN)NC1=O [compound 66] (H-GIFSKLACKKIKNLCISGLKG-NH2; linker 8-15 via 2,2'Bipyridine(5,5'-diCH2)) | – | >64 µg/mL | 16 µg/mL | 4 µg/mL | 32 µg/mL | 8 µg/mL | 75 µg/mL (≈ 31.2 µM)
CC[C@H](C)[C@H](NC(=O)CN)C(=O)N[C@@H](Cc1ccccc1)C(=O)N[C@@H](CO)C(=O)N[C@@H](CCCCN)C(=O)N[C@@H](CC(C)C)C(=O)N[C@@H](C)C(=O)NCC(=O)N[C@@H](CCCCN)C(=O)N[C@@H](CCCCN)C(=O)N[C@H](C(=O)N[C@@H](CCCCN)C(=O)N[C@@H](CC(N)=O)C(=O)N[C@H]1CSCc2ccc3cc(ccc3c2)CSC[C@@H](C(N)=O)NC(=O)[C@H](CCCCN)NC(=O)[C@H](CC(C)C)NC(=O)CNC(=O)[C@H](CO)NC(=O)[C@H]([C@@H](C)CC)NC(=O)[C@H](CC(C)C)NC1=O)[C@@H](C)CC [compound 85] (H-GIFSKLAGKKIKNCLISGLKC-NH2; linker 14-21 via Naphthalene(2,6-diCH2); N-terminus assumed) | – | 64 µg/mL | 32 µg/mL | 4 µg/mL | 16 µg/mL | 4 µg/mL | 87 µg/mL (≈ 36.7 µM)
